The assay relates to rumen fermentation parameters. Nature of the assay: In vivo test: rumen volatile fatty acids and ammonia nitrogen. Particulars: rumen of sheep; for iso-valeric (VFA profile): control 1.60; for Valeric (VFA profile): control 1.69; for Butiric (VFA profile): control 3.69; for C2/C3 (acetate to propionate ratio): control 4.59; for iso-butiric (VFA profile): control 6.73; for Propionic (VFA profile): control 15.7; for NH3—N (ammonia Nitrogen concentration): control 42.5; for Acetic (VFA profile): control 70.6; for Total volatile fatty acid concentration: control 111.3. An excerpt: The experimental design consisted of a cross-over design with 2 sheep per treatment in each period. The trial consisted in 3 consecutive periods of: 14 days of adaptation to the dose plus three consecutive days of methane measurements in chambers. This 14 days adaptation phase was established as the period necessary for wash out between different doses assayed in consecutive periods. During the last two days of methane measurements in chambers rumen contents samples were collected two hours after the morning feeding, sub sampled and immediately frozen prior DNA extraction and determination of volatile fatty acids and ammonia nitrogen concentration. Experimental animals were randomly allocated in three sub-groups of 2 animals and were assigned one of the three treatments (control, dose 1 and dose 2). The 3 sub-groups started the adaptation period with a gap of three days so they had the same number of adaptation days prior to methane measurement in the chambers. Each animal was held in cages with constant access to fresh water. The diet provided to the animals consisted of alfalfa hay chopped at 15 to 20 cm and concentrate in a proportion 1:1 at approximately 1.1 times the energy requirements maintenance level (Prieto et al, 1990) plus mineral-vitamin supplement. Fresh matter intake was monitored daily for each animal throughout the trial. The diet was provided to animals in two equal meals at 9.00 h and 14.00 h.
The additive was provided twice a day through the ruminal cannula at the same time as the diet. The corresponding amount to each dose was added into 10 grams of grounded concentrate and wrapped in cellulose paper immediately before it was placed in the rumen. In order to avoid the volatility of the active molecule, both additives were kept in a cold room at 4° C. where the daily process of dispensing it in the cellulose bags was carried out.
The doses were 50 (dose 1) and 500 (dose 2) mg/animal per day. The higher dose was reached after 3 days of gradual increases (50, 200 and 500 mg), so the whole adaptation period was consequently extended for 3 more days.
Volatile fatty acids were analysed by gas chromatography and ammonia N concentration by colorimetry according to (Cantalapiedra-Híjar et al. Journal of Animal Science. 87, 622-631, 2009).
Individual methane emissions, VFA profiles, ratio of acetate to propionate, ammonia N concentration, and log10 transformations of concentration of total bacteria, total protozoa and methanogenic archaea were analyzed for the following effects: additive dose, day of measurement, and their interaction using a repeated measures analysis of variance under the cross-over design arrangement of the experiment. The standard error of the mean (SEM) was computed for each analysis. No significant effect of the measuring day or its interaction with additive dose was detected in either experiments, so only the effect of the dose is included in the tables. Means were further compared using a least significant difference (LSD) procedure. The SPSS for Windows, version 14.0 (2005; SPSS Inc., Chicago, Ill.) was used for data entry and statistical analysis.

Molecules are shown by their SMILES. Marks after values point to notes of the source that are not given here.

Take `CCOC(=O)CCO[N+](=O)[O-]` [Ethyl-3-nitrooxy propionate]: under “Dose 1 (50 mg/animal per day)”, the “iso-valeric (VFA profile)” value is listed as 1.50 mol/100 mol, the “Valeric (VFA profile)” value was 1.55^a mol/100 mol, the “Butiric (VFA profile)” value was determined as 3.50 mol/100 mol and the “C2/C3 (acetate to propionate ratio)” value is recorded as 4.26^ab. Besides, for the setting “Dose 1 (50 mg/animal per day)”, the “iso-butiric (VFA profile)” value was 5.57^a mol/100 mol, the “Propionic (VFA profile)” value is listed as 16.8^ab mol/100 mol, the “NH3—N (ammonia Nitrogen concentration)” value is on record as 40.5 mg/100 ml and the “Acetic (VFA profile)” value is listed as 71.0^a mol/100 mol. For the same compound, the “Total volatile fatty acid concentration” value (Dose 1 (50 mg/animal per day)) is 123.3^a mmol/l. Moreover, where the note is “Dose 2 (500 mg/animal per day)”, the “iso-valeric (VFA profile)” value came out at 1.76 mol/100 mol, the “Valeric (VFA profile)” value is 2.42^b mol/100 mol, the “Butiric (VFA profile)” value worked out at 3.47 mol/100 mol and the “C2/C3 (acetate to propionate ratio)” value is reported as 3.57^b. In addition, under “Dose 2 (500 mg/animal per day)”, the “iso-butiric (VFA profile)” value was 8.06^b mol/100 mol, the “Propionic (VFA profile)” value is 18.8^b mol/100 mol, the “NH3—N (ammonia Nitrogen concentration)” value is 40.1 mg/100 ml and the “Acetic (VFA profile)” value is reported as 65.5^b mol/100 mol. For the same compound, the “Total volatile fatty acid concentration” value (Dose 2 (500 mg/animal per day)) is 104.1^b mmol/l.

The record behind these values is patent US9365489B2, “Nitrooxy alkanoic acids and derivatives thereof in feed for reducing methane emission in ruminants, and/or to improve ruminant performance” (priority 2009, dated 2016).
